Experimental findings from publication PMC9531406 (Clinical cancer research : an official journal of the …, 2020) are described below.

Assay [1] concerns SSTR2 promoter. The assay is described as follows: ChIP assay, histone acetylation at the SSTR2 promoter, BCPAP cells. Format: cell-based, human. The conditions noted are these: VAC 4mM, 72h, n=4, relative to control, p<0.001.
In a further assay the test system is AR42J tumors. Briefly: PRRT in AR42J. It counts as in vivo. The conditions noted are these: AR42J mice model; VAC 300 µg/kg intraperitoneal daily for 10 days.
Assay [2] deals with SSTR2 expression. Briefly: SSTR2 expression in thyroid cancer cells after epigenetic modifiers. It counts as cell-based, human.
Another assay has as its system FTC133 tumors. The assay is described as follows: PRRT in FTC133. Format: in vivo. The note with it: FTC133 mice model; VAC 300 µg/kg intraperitoneal daily for 10 days.
Assay [3] deals with SSTR2 promoter. The assay is described as follows: ChIP assay, histone acetylation at the SSTR2 promoter, FTC133 cells. Format: cell-based, human. The conditions noted are these: VAC 4mM, 72h.
The subject of another assay is SSTR2. Briefly: IHC staining of SSTR2 in tumor tissues of treated mice. The note with it: FTC133 (p=0.023) and AR42J (p=0.016) models; VAC 300 µg/kg intraperitoneal daily for 10 days. Format: in vivo.
The subject of assay [4] is subcutaneous and metastatic mice models. The assay is described as follows: Effect of epigenetic pretreatment on uptake of SST analogs in mice models. Format: in vivo. The note with it: for effect on the uptake of ^86Y-DOTA-EB-TATE within the tumor and normal tissues in comparison with control mice: biodistribution, FTC133 and AR42J tumor-bearing mice.
A further assay has as its system examined cell lines. The assay is described as follows: Growth inhibition / cell cycle after VAC treatment. Format: cell-based. The note with it: VAC treatment (Supplemental Figure 3).
Assay [5] has as its system acetylated histone 3 and acetylated histone 4. The assay is described as follows: Global histone acetylation. It counts as cell-based. The conditions noted are these: FTC133, BCPAP, and AR42J cells; VAC 4mM, 72h, n=3.
Assay [6] deals with SSTR2 promoter. The assay is described as follows: ChIP assay, histone acetylation at the SSTR2 promoter, AR42J cells. It counts as cell-based, rat. The note with it: VAC 4mM, 72h, n=4, relative to control.
Assay [7] concerns SSTR2 expression. Briefly: SSTR2 expression in AR42J cells after VAC. Format: cell-based, rat. The conditions noted are these: AR42J cell line; 2 mM or 4 mM for 72 h.

For the molecule `CCCC(CCC)C(=O)O` [VAC, valproic acid], the “increase in H3ac at the SSTR2 promoter” value came to 1.9 fold in the assay with SSTR2 promoter [1] and 2.8 fold in the assay with SSTR2 promoter [6] (p<0.001). Besides, the “increase in H4ac at the SSTR2 promoter” value in the assay on SSTR2 promoter [1] turned out to be 2.9 fold; with SSTR2 promoter [6] (p<0.01) it was 2.7 fold. The “effect of VAC pretreatment on the efficacy of ^177Lu-DOTA-EB-TATE” value with AR42J tumors and in the assay on FTC133 tumors was “did not improve the efficacy” each time. Further, the SSTR2 expression entry in the assay on SSTR2 expression [2] (FTC133, BCPAP and TT cells, 2 mM or 4 mM for 72 h) is recorded as “significantly upregulated”; in the assay with SSTR2 expression [7], “significantly upregulated”. Also, in the assay on SSTR2 expression [2] (thyroid cancer cells, 72h), the “induction of SSTR2 expression in comparison to TAC and DEC” value is on record as “more potent inducer of SSTR2 expression”. In addition, in the assay on SSTR2 promoter [3] (n=4, p<0.001), the “increase in H4 acetylation at the SSTR2 promoter” value turned out to be 2.4 fold. In the assay with SSTR2 promoter [3] (n=4, p<0.05), the “H3 acetylation at the SSTR2 promoter” value is “slightly, but significantly reduced”. In addition, the “SSTR2 expression in tumor tissues compared with placebo (IHC)” value in the assay on SSTR2 is “higher cytoplasmic SSTR2 expression”. Moreover, in [4], the “effect on the uptake of ^86Y-DOTA-EB-TATE within the tumor and normal tissues in comparison with control mice” value is given as “Neither VAC nor DEC treatment resulted in any significant difference”. For the same molecule, in [4] (subcutaneous and metastatic mice models, VAC 300 µg/kg intraperitoneal daily for 10 days, PET), the “effect of VAC treatment on the uptake of the SST analogs” value is reported as “no significant effect”. Besides, the “effect on cell growth” value with examined cell lines is “growth inhibition by promoting cell cycle arrest”. Besides, the “global histone acetylation at the protein level” value in [5] was “increase in H3ac and H4ac”.

With `Nc1ncn([C@H]2C[C@H](O)[C@@H](CO)O2)c(=O)n1` [decitabine], the “effect of decitabine treatment on the uptake of ^86Y-DOTA-EB-TATE” value in assay [4] (FTC133 and AR42J subcutaneous mice models, decitabine 1 mg/kg intraperitoneal daily for 10 days, PET scans) is given as “did not improve the uptake”. In addition, the “effect on the uptake of ^86Y-DOTA-EB-TATE within the tumor and normal tissues in comparison with control mice” value in [4] is given as “Neither VAC nor DEC treatment resulted in any significant difference”.
